Source: US20070128217A1 (priority 2003, published 2007)

Legend:
[1] = system: antibodies in sera from SARS patients (sera 1a, 1b, 2, 6, 37, 62, London, SARS-yellow, SARS-green); type: binding, human
[2] = system: control sera (pooled serum of ten healthy LUMC hospital workers; commercial negative donor pooled serum from the Dutch bloodbank); type: binding, human
[3] = system: rabbit serum obtained by immunizing a rabbit with the SARS-CoV strain Frankfurt 1; type: binding; set-up: Binding of a rabbit serum to linear peptides / Binding of a rabbit serum to looped peptides / Rabbit serum linear peptides / Rabbit serum looped peptides / Binding of a rabbit serum to linear peptides of protein N of SARS-CoV Urbani (Rabbit serum linear peptides) / Binding of a rabbit serum to looped/cyclic peptides of protein N of SARS-CoV Urbani (Rabbit serum looped peptides): unit not given here

Sequence	Binding of serum 1a to linear peptides of protein E of SARS-CoV Urbani [1]	Binding of serum 1a to looped/cyclic peptides of protein E of SARS-CoV Urbani [1]	Binding of serum 1b to linear peptides of protein E of SARS-CoV Urbani [1]	Binding of serum 1b to looped/cyclic peptides of protein E of SARS-CoV Urbani [1]	Binding of serum 2 to linear peptides of protein E of SARS-CoV Urbani [1]	Binding of serum 2 to looped/cyclic peptides of protein E of SARS-CoV Urbani [1]	Binding of serum 6 to linear peptides of protein E of SARS-CoV Urbani [1]	Binding of serum 6 to looped/cyclic peptides of protein E of SARS-CoV Urbani [1]	Binding of serum 37 to linear peptides of protein E of SARS-CoV Urbani [1]	Binding of serum 37 to looped/cyclic peptides of protein E of SARS-CoV Urbani [1]	Binding of serum 62 to linear peptides of protein E of SARS-CoV Urbani [1]	Binding of serum 62 to looped/cyclic peptides of protein E of SARS-CoV Urbani [1]	Binding of serum London to linear peptides of protein E of SARS-CoV Urbani [1]	Binding of serum London to looped/cyclic peptides of protein E of SARS-CoV Urbani [1]	Binding of serum SARS-green to linear peptides of protein E of SARS-CoV Urbani [1]	Binding of serum SARS-green to looped/cyclic peptides of protein E of SARS-CoV Urbani [1]	Binding of serum SARS-yellow to linear peptides of protein E of SARS-CoV Urbani [1]	Binding of serum SARS-yellow to looped/cyclic peptides of protein E of SARS-CoV Urbani [1]	Binding of Control Serum Blood-Bank to Looped peptides [2]	Binding of Control serum Blood-bank to linear peptides [2]	other results
VFLLVTLAILTALRL	0.7	0.4	0.4	0.2	0.4	0.4	0.5	0.2	0.6	0.4	0.6	0.5	0.5	0.3	0.4	0.2	0.0	0.5	0.4	0.5	Binding of Control serum LUMC to linear peptides [2]: 0.3; Binding of Control serum LUMC to looped peptides [2]: 0.5; Binding of a rabbit serum to linear peptides [3]: 0.4; Binding of a rabbit serum to looped peptides [3]: 0.3
VLLFLAFVVFLLVTL	0.8	0.6	0.9	0.5	0.8	0.5	0.9	0.4	0.8	0.6	0.8	0.8	0.6	0.4	0.5	0.3	0.3	0.6	0.5	0.8	Binding of Control serum LUMC to linear peptides [2]: 0.5; Binding of Control serum LUMC to looped peptides [2]: 0.7; Binding of a rabbit serum to linear peptides [3]: 0.5; Binding of a rabbit serum to looped peptides [3]: 0.5
VSEETGTLIVNSVLL	0.8	0.7	0.5	0.6	0.3	0.6	0.4	0.5	0.5	0.7	0.7	0.9	0.5	0.5	0.4	0.6	0.1	0.7	0.9	0.8	Binding of Control serum LUMC to linear peptides [2]: 0.5; Binding of Control serum LUMC to looped peptides [2]: 0.7; Binding of a rabbit serum to linear peptides [3]: 0.4; Binding of a rabbit serum to looped peptides [3]: 0.1
YSFVSEETGTLIVNS	0.8	0.7	0.7	0.5	0.5	0.7	0.5	0.4	0.6	0.8	0.5	0.8	0.7	0.4	0.7	0.4	0.6	0.7	0.6	0.7	Binding of Control serum LUMC to linear peptides [2]: 1.0; Binding of Control serum LUMC to looped peptides [2]: 0.8; Binding of a rabbit serum to linear peptides [3]: 0.2; Binding of a rabbit serum to looped peptides [3]: 0.4
